For one test, the target named is T1, human DP2 receptor (Homo sapiens, UniProt Q9Y5Y4).
T1 construct: expressed in transfected cells
T1 sequence (Q9Y5Y4 1-395): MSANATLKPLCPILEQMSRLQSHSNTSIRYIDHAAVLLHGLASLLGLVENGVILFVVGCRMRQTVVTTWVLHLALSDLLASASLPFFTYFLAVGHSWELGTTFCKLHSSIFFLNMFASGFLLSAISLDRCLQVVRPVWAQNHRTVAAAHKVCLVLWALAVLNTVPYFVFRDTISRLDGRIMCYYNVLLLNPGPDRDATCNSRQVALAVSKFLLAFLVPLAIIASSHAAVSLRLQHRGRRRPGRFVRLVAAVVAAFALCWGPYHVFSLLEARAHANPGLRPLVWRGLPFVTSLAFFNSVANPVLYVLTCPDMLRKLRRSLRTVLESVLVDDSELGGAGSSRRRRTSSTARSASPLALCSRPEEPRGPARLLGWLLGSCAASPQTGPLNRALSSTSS
Put plainly: DP2/CRTH2 radioligand binding assay ([3H]PGD2). To be noted: membranes of HEK293 cells expressing recombinant human DP2, 1 nM [3H]PGD2; read-out: hDP2. The procedure: The ability of a compound to bind to the human DP2 receptor is assessed via a radioligand binding assay using [^3H]PGD2. HEK293 cells stably expressing recombinant human DP2 are resuspended in 10 mM Hepes, 7.4 containing 1 mM DTT, lysed and centrifuged at 75,000×g to pellet the membranes. The membranes are resuspended in 10 mM Hepes, 7.4 containing 1 mM DTF and 10% glycerol to approximately 5 mg protein/ml. Membranes (2-10 […]) are incubated in 96-well plates with 1 nM [^3H]PGD2 and test compound in Assay Buffer (50 mM Hepes, 10 mM MnCl2, 1 mM EDTA, plus or minus 0.2% human serum albumin, pH 7.4) for 60 minutes at room temperature. The reactions are terminated by rapid filtration through Whatman GF/C glass fibre filter plates. The filter plates were pre-soaked in 0.33% polythylenimine for 30 minutes at room temperature then washed in Wash Buffer (50 mM Hepes, 0.5 M NaCl pH 7.4) prior to harvesting. After harvesting, the filter plates are washed 3 times with 1 ml cold Wash Buffer then dried. Scintillant is then added to the plates and the radioactivity retained on the filters is determined on a Packard TopCount (Perkin Elmer). Specific binding is determined as total radioactive binding minus non-specific binding in the presence of 10 μM PGD2. IC50s were determined using GraphPad prism analysis of drug titration curves.

In the next test the target is T2, human DP1 receptor (Homo sapiens, UniProt Q13258).
T2 construct: tissue Biological Specialty Corporation; host or cells: human platelets, membrane preparation
T2 sequence (Q13258 1-359): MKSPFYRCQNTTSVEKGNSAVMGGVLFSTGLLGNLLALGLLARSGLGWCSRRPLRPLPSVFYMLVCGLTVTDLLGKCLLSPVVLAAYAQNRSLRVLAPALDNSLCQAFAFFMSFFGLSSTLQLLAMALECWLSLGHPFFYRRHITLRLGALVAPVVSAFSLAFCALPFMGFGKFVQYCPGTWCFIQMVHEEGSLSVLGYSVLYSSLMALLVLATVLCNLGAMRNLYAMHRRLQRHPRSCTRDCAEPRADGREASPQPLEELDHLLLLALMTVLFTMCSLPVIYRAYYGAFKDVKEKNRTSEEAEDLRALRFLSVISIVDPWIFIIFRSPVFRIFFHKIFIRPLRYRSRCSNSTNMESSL
Briefly: DP1 radioligand membrane binding assay ([3H]BWA868C). The settings on record: human platelet membranes, 2 nM [3H]BWA868C; read-out: hDP1. The method, then:
The ability of a compound to bind to the human DP1 receptor was evaluated via a radioligand membrane binding assay using the DP1 selective synthetic ligand [^3H]BWA868C. Packed human platelets (Biological Specialty Corporation), were resuspended in 6 volumes of Hepes/HBSS buffer (10 mM Hepes, 1 mM DTT in Hanks Balanced Salt Solution (HBSS), lysed and centrifuged at 75,000×g to pellet the membranes. Membranes were resuspended in Hepes/HBSS buffer to approximately 12 mg protein/ml. Membranes (20 μg protein/well) are incubated in 96-well plates with 2 nM [^3H]BWA868C and test compound in Assay Buffer (50 mM Hepes, 10 mM MnCl2, 1 mM EDTA, plus or minus 0.2% human serum albumin, pH 7.4) for 60 minutes at room temperature. The reactions are terminated by rapid filtration through Whatman GF/C glass fibre filter plates. The filter plates were pre-soaked in 0.33% polyethylenimine for 30 minutes at room temperature then washed in Wash Buffer (50 mM Hepes, 0.5 M NaCl pH 7.4) prior to harvesting. After harvesting, the filter plates are washed 3 times with 1 ml cold Wash Buffer then dried. Scintillant is then added to the plates and the radioactivity retained on the filters is determined on a Packard TopCount (Perkin Elmer). Specific binding is determined as total radioactive binding minus non-specific binding in the presence of 10 μM BW A868C. IC50s were determined using GraphPad prism analysis of drug titration curves.

For the compound `COc1ccc(CC(=O)O)cc1Oc1ccc(C(F)(F)F)cc1CSCCc1ccccc1` [Compound 1-1, [4-Methoxy-3-(2-phenethylsulfanylmethyl-4-trifluoromethyl-phenoxy)-phenyl]-acetic acid], the IC50 at human DP2 receptor was less than 300 nM; on human DP1 receptor it was more than 1000 nM.

Consider `COc1ccc(CC(=O)O)cc1Oc1ccc(C(F)(F)F)cc1CSCC(F)(F)F` [Compound 1-2, {4-Methoxy-3-[2-(2,2,2-trifluoro-ethylsulfanylmethyl)-4-trifluoromethyl-phenoxy]-phenyl}-acetic acid], for which the values for the IC50 on human DP2 receptor and at human DP1 receptor were less than 300 nM and more than 1000 nM, respectively.

`COc1ccc(CC(=O)O)cc1Oc1ccc(C(F)(F)F)cc1CSC(C)(C)C` [Compound 1-3, [3-(2-tert-Butylsulfanylmethyl-4-trifluoromethyl-phenoxy)-4-methoxy-phenyl]-acetic acid]: the IC50 on human DP2 receptor was 300 to 1000 nM; on human DP1 receptor it was more than 1000 nM.

As to `COc1ccc(CC(=O)O)cc1Oc1ccc(C(F)(F)F)cc1CSc1ccccc1` [Compound 1-4, [4-Methoxy-3-(2-phenylsulfanylmethyl-4-trifluoromethyl-phenoxy)-phenyl]-acetic acid], the IC50 was less than 300 nM at human DP2 receptor and more than 1000 nM at human DP1 receptor.

`COc1ccc(CC(=O)O)cc1Oc1ccc(C(F)(F)F)cc1CS(=O)(=O)CCc1ccccc1` [Compound 1-5, {4-Methoxy-3-[2-(2-phenyl-ethanesulfonylmethyl)-4-trifluoromethyl-phenoxy]-phenyl}-acetic acid]: the IC50 at human DP2 receptor was less than 300 nM; at human DP1 receptor, more than 1000 nM.

As to `COc1ccc(CC(=O)O)cc1Oc1ccc(C(F)(F)F)cc1CS(=O)(=O)C(C)(C)C` [Compound 1-6, {4-Methoxy-3-[2-(2-methyl-propane-2-sulfonylmethyl)-4-trifluoromethyl-phenoxy]-phenyl}-acetic acid], the IC50 at human DP2 receptor and on human DP1 receptor was more than 1000 nM in each case.

In the case of `COc1ccc(CC(=O)O)cc1Oc1ccc(C(F)(F)F)cc1CS(=O)(=O)c1ccccc1` [Compound 1-7, [3-(2-Benzenesulfonylmethyl-4-trifluoromethyl-phenoxy)-4-methoxy-phenyl]-acetic acid], the results for the IC50 on human DP2 receptor and at human DP1 receptor were 300 to 1000 nM and more than 1000 nM, respectively.

As to `COc1ccc(CC(=O)O)cc1Oc1ccc(C(F)(F)F)cc1C[S+]([O-])CCc1ccccc1` (stereo not shown) [Compound 1-8, {4-Methoxy-3-[2-(2-phenyl-ethanesulfinylmethyl)-4-trifluoromethyl-phenoxy]-phenyl}-acetic acid], the IC50 at human DP2 receptor is less than 300 nM; on human DP1 receptor, more than 1000 nM.

Take `COc1ccc(CC(=O)O)cc1Oc1ccc(C(F)(F)F)cc1C[S+]([O-])C(C)(C)C` (stereo not shown) [Compound 1-9, {4-Methoxy-3-[2-(2-methyl-propane-2-sulfinylmethyl)-4-trifluoromethyl-phenoxy]-phenyl}-acetic acid]: the IC50 on human DP2 receptor and on human DP1 receptor was more than 1000 nM in each case.

Take `COc1ccc(CC(=O)O)cc1Oc1ccc(C(F)(F)F)cc1C[S+]([O-])c1ccccc1` (stereo not shown) [Compound 1-10, [3-(2-Benzenesulfinylmethyl-4-trifluoromethyl-phenoxy)-4-methoxy-phenyl]-acetic acid]: the IC50 at human DP2 receptor was less than 300 nM; on human DP1 receptor it was more than 1000 nM.

In the case of `O=C(O)Cc1cccc(Oc2ccc(Br)cc2CSc2ccccc2)c1` [Compound 1-11, [3-(4-Bromo-2-phenylsulfanylmethyl-phenoxy)-phenyl]-acetic acid], the IC50 is less than 300 nM on human DP2 receptor and 300 to 1000 nM at human DP1 receptor.

For the compound `O=C(O)Cc1cccc(Oc2ccc(Br)cc2CSCc2ccccc2)c1` [Compound 1-12, [3-(2-Benzylsulfanylmethyl-4-bromo-phenoxy)-phenyl]-acetic acid], the IC50 on human DP2 receptor and on human DP1 receptor was less than 300 nM throughout.

Consider `O=C(O)Cc1cccc(Oc2ccc(Br)cc2CSCCc2ccccc2)c1` [Compound 1-13, [3-(4-Bromo-2-phenethylsulfanylmethyl-phenoxy)-phenyl]-acetic acid], for which the IC50 on human DP2 receptor and at human DP1 receptor was less than 300 nM each time.

`O=C(O)Cc1cccc(Oc2ccc(Br)cc2CSc2nccs2)c1` [Compound 1-14, {3-[4-Bromo-2-(thiazol-2-ylsulfanylmethyl)-phenoxy]-phenyl}-acetic acid]: the IC50 is less than 300 nM on human DP2 receptor and 300 to 1000 nM on human DP1 receptor.

`Cc1nnc(SCc2cc(Br)ccc2Oc2cccc(CC(=O)O)c2)s1` [Compound 1-15, {3-[4-Bromo-2-(5-methyl-[1,3,4]thiadiazol-2-ylsulfanylmethyl)-phenoxy]-phenyl}-acetic acid]: the results for the IC50 on human DP2 receptor and on human DP1 receptor were less than 300 nM and more than 1000 nM, respectively.

As to `O=C(O)Cc1cccc(Oc2ccc(Br)cc2CSc2ccc3ccccc3n2)c1` [Compound 1-16, {3-[4-Bromo-2-(quinolin-2-ylsulfanylmethyl)-phenoxy]-phenyl}-acetic acid], the IC50 at human DP2 receptor and at human DP1 receptor was 300 to 1000 nM in each case.

Regarding `O=C(O)Cc1cccc(Oc2ccc(Br)cc2CSc2ccccn2)c1` [Compound 1-17, {3-[4-Bromo-2-(pyridin-2-ylsulfanylmethyl)-phenoxy]-phenyl}-acetic acid], the IC50 at human DP2 receptor and on human DP1 receptor was 300 to 1000 nM in each case.

Turning to `COc1ccc(CC(=O)O)cc1Oc1ccc(-c2cnn(C)c2)cc1CSC(C)C` [Compound 1-63, {3-[2-Isopropylsulfanylmethyl-4-(1-methyl-1H-pyrazol-4-yl)-phenoxy]-4-methoxy-phenyl}-acetic acid], on human DP2 receptor, the IC50 is less than 300 nM.

For the compound `COc1ccc(CC(=O)O)cc1Oc1ccc(-c2cnn(C)c2)cc1CS(=O)(=O)C(C)C` [Compound 1-64, {4-Methoxy-3-[4-(1-methyl-1H-pyrazol-4-yl)-2-(propane-2-sulfonylmethyl)-phenoxy]-phenyl}-acetic acid], the IC50 at human DP2 receptor lay in the range of 300 to 1000 nM.

For `COc1ccc(CC(=O)O)cc1Oc1ccc(C(=O)c2ccccc2)cc1CSC(C)C` [Compound 1-83, [3-(4-Benzoyl-2-isopropylsulfanylmethyl-phenoxy)-4-methoxy-phenyl]-acetic acid], the IC50 on human DP2 receptor was less than 300 nM.

For `COc1ccc(CC(=O)O)cc1Cc1ccc(NC(=O)C(C)(C)C)cc1CSC(C)(C)C` [Compound 1-107, {3-[2-tert-Butylsulfanylmethyl-4-(2,2-dimethyl-propionylamino)-benzyl]-4-methoxy-phenyl}-acetic acid], on human DP2 receptor, the IC50 is less than 300 nM.

As for `COc1ccc(CC(=O)O)cc1Oc1ccc(NC(=O)C(C)(C)C)cc1COc1ccccc1` [Compound 1-118, {3-[4-(2,2-Dimethyl-propionylamino)-2-phenoxymethyl-phenoxy]-4-methoxy-phenyl}-acetic acid], on human DP2 receptor, the IC50 was 300 to 1000 nM.

Regarding `COc1ccc(CC(=O)O)cc1Oc1ccc(NS(=O)(=O)c2cccc3c(N(C)C)cccc23)cc1CSC(C)(C)C` [Compound 1-119, {3-[2-tert-Butylsulfanylmethyl-4-(5-dimethylamino-naphthalene-1-sulfonylamino)-phenoxy]-4-methoxy-phenyl}-acetic acid], the IC50 on human DP2 receptor was less than 300 nM.

The values above are taken from patent US20110190227A1, “Antagonists of Prostaglandin D2 Receptors” (Amira Pharmaceuticals, Inc., priority 2008, published 2011).
